Laboratory results from patent US10974064B2, “Optogenetic control of behavioral state” (The Board of Trustees of the Leland Stanford Junior …, priority 2013, dated 2021).

Assays:
[1] = system: adBNST neurons; assay: Ex vivo slice voltage-clamp recording of light-evoked EPSCs and IPSCs (ChR2 in BLA afferents); format: cell-based, mice; settings: bath application 100 μM picrotoxin; n=4
Protocol: For slice physiology in combination with optogenetics, 3-4 week old male wild-type mice were injected with AAV-CaMKIIa::ChR2-eYFP into the BLA, or male Drd1a-Cre mice were injected with AAV-EFla::DIO-ChR2(H134R)-eYFP into the ovBNST. After a month, acute 300 μm coronal slices were obtained by transcardially perfusing ice-cold sucrose cutting solution (in mM; 11 D-glucose, 234 sucrose, 2.5 KCl, 1.25 NaH2PO4, 10 MgSO4, 0.5 CaCl2, 26 NaHCO3) and slicing in the same solution using a vibratome (VT1000S; Leica, Buffalo Grove, Ill., USA). Slices were recovered in oxygenated artificial cerebrospinal fluid (aCSF; in mM, 123 NaCl, 26 NaHCO3, 3 KCl, 1.25 NaH2PO4, 1 MgCl2, 2 CaCl2, and 11 glucose) at 32° C. for one hour. […]
For the blue light delivery, light was emitted from a 300 W broad-wavelength xenon lamp source (DG-4, Sutter Instruments, Novato, Calif., USA), band-pass filtered at 470±20 nm (Semrock; Rochester, N.Y., USA), passed through additional neutral density filters (ThorLabs; Newton, N.J., USA) and coupled to the fluorescence port of the microscope. […]
Voltage-clamp recordings were made at both −70 mV to isolate EPSCs, and at 0 mV to isolate IPSCs. […] Currents were filtered at 2 kHz, digitized at 50 kHz, and recorded to disk using pClamp10 software (Molecular Devices). […]

[2] = system: adBNST neurons; assay: Calcium imaging (OGB-1) of persistent activity in adBNST slice after electrical stimulation; format: cell-based, mice; settings: 100 μM APV, then 10 μM NBQX added; N (all cells) 277 for APV, 279 for NBQX + APV

Compound	light-evoked IPSCs [1]	N (number of cells activated after stimulation) [2]
picrotoxin	blocked	–
NC(CCCP(=O)(O)O)C(=O)O (centres unmarked) [APV, 2-amino-5-phosphonopentanoic acid]	–	61
